The data set in a line: In vitro drug release study (dialysis bag, PBS pH 7.4, 37 °C) with kinetic model fitting. The class given is physicochemical. As for the experimental part:
In comparison to the release of MEF from suspension, the MEF release from the optimal niosomal formulation was assessed. The dialysis method is the technique of choice for assessing the criteria of drug release from the niosomal formula. MEF release from niosomal formulation and suspension was monitored using a dialysis bag (MWCO12000 Da) at 37 °C for 24 h versus PBS (pH 7.4) to simulate the biological conditions. The optimal niosomes formula and suspension (1 ml of each) were loaded separately inside the dialysis tube, and the released quantity of MEF was evaluated in 100 ml of PBS with continuous stirring. At predefined intervals, (1, 2, 3, 4, 5, 6, 8, and 24 h), 2 ml of freshly formed PBS was added to replace two ml that were withdrawn from the release medium to assess the drug release rate. Lastly, the released concentrations of MEF were determined by examining the samples at 285 nm wavelength using a UV–visible spectrophotometer. This study was performed in triplicate (Targhi et al. [2021]).
The mathematical methodology utilized to determine the kinetics of the total released percentages (cumulative) of MEF from the niosomes formulation was linear regression analysis. These models include Higuchi, Korsmeyer Peppas, First Order, and Zero Order. In the end, the correlation coefficient values were compared to select the model that best fit the data. […]

SMILES strings stand for the structures.

With `Cc1cccc(Nc2ccccc2C(=O)O)c1C` [MEF suspension, mefenamic acid], the “Cumulative MEF release” value (after 24 h, PBS pH 7.4, 37 °C, dialysis bag) turned out to be 55.36%. The Order of permeation entry (best-fit release model) is “Diffusion”.
